# Measurements from patent EP0240392A1, “Compounds of the cyclophosphazene type, process for their preparation and pharmaceutical preparation containing them” (CENTRE NATIONAL DE LA RECHERCHE SCIENTIFIQUE (CNRS), priority 1986, dated 1987).
# Marks after values point to notes of the source that are not given here.
# Experiments:
# LEUCEMIE L1210 = experiment: Antitumour activity on L1210 leukemia implanted i.p. in mice; format: in vivo, souris CD2F1; set-up: key to T/C (%): Δ: 2 souris mortes avant le 5ème jour, 1 souris au jour 6, 2 souris au jour 16 et la dernière était encore vivante après le 40ème jour
# Source text: (§1) Les tests d'activité antitumorale ont été conduits au sein du Screening and Pharmacology Group de l'E.O.R.T.C., implanté à l'Institut Mario Negri de Milan.
# (§2) Ces essais ont été conduits soit en mono-injection à différentes doses au jour J+1 suivant la greffe de la tumeur, soit en poly-injections chroniques Q1D, soit en protocoles Q4D.
# (§3) L'activité antitumorale est mesurée par le rapport T/C %, T (en jours) étant le durée moyenne de vie des souris traitées, C (en jours) étant la durée moyenne de vie des souris témoins.
# (§4) L'effet thérapeutique est considéré comme significatif quant T/C % est supérieur ou égal à 125.
# [1] = tested on: CARCINOME DU POUMON DE LEWIS; experiment: Antitumour activity on Lewis lung carcinoma implanted i.m. in mice; format: in vivo, souris C57Bl/6
# Source text: as §1, §2
# LEUCEMIE P388 = experiment: Antitumour activity on P388 leukemia implanted i.p. in mice; format: in vivo, souris CD2F1
# Source text: as §1, §2, §3, §4
# [2] = tested on: RETICULO SARCOME M5076 MURIN; experiment: Antitumour activity on murine M5076 reticulum sarcoma implanted i.m. in mice; format: in vivo, souris C57Bl/6; conditions: 50 mg/kg i.p. x j 1-9
# Source text: as §1, §2
# [3] = 200 mg/kg i.p. x j 1,5,9, sacrifice jour 25
compound,measurement,setting,value
C(CCN1CCCNP12=NP(N1CC1)(N1CC1)=NP(N1CC1)(N1CC1)=N2)CN1CCCNP12=NP(N1CC1)(N1CC1)=NP(N1CC1)(N1CC1)=N2 (stereo not drawn) [SPM],T/C (%),"LEUCEMIE L1210; Tableau 1, 25 mg/kg i.p. x j 1,5,9",117%
same,T/C (%),"LEUCEMIE L1210; Tableau 1, 25 mg/kg i.p. x j 1-9",131%
same,T/C (%),"LEUCEMIE L1210; Tableau 1, 50 mg/kg i.p. x j 1",131%
same,T/C (%),"LEUCEMIE L1210; Tableau 1, 50 mg/kg i.p. x j 1,5,9",131%
same,T/C (%),"LEUCEMIE L1210; Tableau 1, 50 mg/kg i.p. x j 1-9",150%
same,T/C (%),"LEUCEMIE L1210; Tableau 1, 75 mg/kg i.p. x j 1-9",140%
same,T/C (%),"LEUCEMIE L1210; Tableau 1, 100 mg/kg i.p. x j 1",125%
same,T/C (%),"LEUCEMIE L1210; Tableau 1, 100 mg/kg i.p. x j 1,5,9",137%
same,T/C (%),"LEUCEMIE L1210; Tableau 1, 100 mg/kg i.p. x j 1-9",140%
same,T/C (%),"LEUCEMIE L1210; Tableau 1, 150 mg/kg i.p. x j 1-9",170%
same,T/C (%),"LEUCEMIE L1210; Tableau 1, 200 mg/kg i.p. x j 1",156%
same,T/C (%),"LEUCEMIE L1210; Tableau 1, 200 mg/kg i.p. x j 1,5,9",159%
same,T/C (%),"LEUCEMIE L1210; Tableau 1, 300 mg/kg i.p. x j 1",135%
same,T/C (%),"LEUCEMIE L1210; Tableau 1, 300 mg/kg i.p. x j 1,5,9",164%
same,T/C (%),"LEUCEMIE L1210; Tableau 1, 400 mg/kg i.p. x j 1",130%
same,T/C (%),"LEUCEMIE L1210; Tableau 1, 12,5 mg/kg i.p. x j 1-9",112%
same,T/C (%),"LEUCEMIE L1210; Tableau 10, 25 mg/kg i.p. x j 1-9",141%
same,T/C (%),"LEUCEMIE L1210; Tableau 10, 50 mg/kg i.p. x j 1,5,9",123%
same,T/C (%),"LEUCEMIE L1210; Tableau 10, 50 mg/kg i.p. x j 1-9",152%
same,T/C (%),"LEUCEMIE L1210; Tableau 10, 100 mg/kg i.p. x j 1",135%
same,T/C (%),"LEUCEMIE L1210; Tableau 10, 100 mg/kg i.p. x j 1,5,9",152%
same,T/C (%),"LEUCEMIE L1210; Tableau 10, 100 mg/kg i.p. x j 1-9",170%
same,T/C (%),"LEUCEMIE L1210; Tableau 10, 150 mg/kg i.p. x j 1,5,9",176%
same,T/C (%),"LEUCEMIE L1210; Tableau 10, 150 mg/kg i.p. x j 1-9",182%
same,T/C (%),"LEUCEMIE L1210; Tableau 10, 200 mg/kg i.p. x j 1",147%
same,T/C (%),"LEUCEMIE L1210; Tableau 10, 250 mg/kg i.p. x j 1,5,9",194%
same,T/C (%),"LEUCEMIE L1210; Tableau 10, 300 mg/kg i.p. x j 1",158%
same,T/C (%),"LEUCEMIE L1210; Tableau 10, 400 mg/kg i.p. x j 1",Δ
same,activité sur la leucémie L1210 (result in words),LEUCEMIE L1210; quel que soit le protocole utilisé,relativement faible
same,Volume de la tumeur (d^2.D/2)cm^3 ± S.E.,"[1]; 200 mg/kg i.p. x j 1,5,9, jour 10","0,53±0,08 cm^3"
same,Volume de la tumeur (d^2.D/2)cm^3 ± S.E.,"[1]; 200 mg/kg i.p. x j 1,5,9, jour 13","1,64±0,18 cm^3"
same,Volume de la tumeur (d^2.D/2)cm^3 ± S.E.,"[1]; 200 mg/kg i.p. x j 1,5,9, jour 17","3,49±0,15* cm^3"
same,Volume de la tumeur (d^2.D/2)cm^3 ± S.E.,"[1]; 200 mg/kg i.p. x j 1,5,9, jour 20","4,35±0,26* cm^3"
same,Volume de la tumeur (d^2.D/2)cm^3 ± S.E.,"[1]; 200 mg/kg i.p. x j 1,5,9, jour 24","6,08±0,31* cm^3"
same,Métastases Nombre moyen (N ± S.E.),[1]; [3],"14 ± 3,4"
same,Métastases Poids moyen (mg ± S.E.),[1]; [3],"127,3 ± 43,1 mg"
same,Poids moyen de la tumeur (g ± S.E.),[1]; [3],"7,40 ± 0,33 g"
same,activité sur le carcinome du poumon de Lewis (result in words),[1]; souris C57B1/6,intéressante activité
same,T/C (%),"LEUCEMIE P388; Tableau 2, inoculation i.p., 100 mg/kg i.p. x 9 (j 1 à 9)",245%
same,T/C (%),"LEUCEMIE P388; Tableau 2, inoculation i.p., 150 mg/kg i.p. x 9 (j 1 à 9)",135%
same,T/C (%),"LEUCEMIE P388; Tableau 2, inoculation i.p., 200 mg/kg i.p. x 9 (j 1 à 9)",110%
same,T/C (%),"LEUCEMIE P388; Tableau 9, 25 mg/kg i.p. x j 1-9",166%
same,T/C (%),"LEUCEMIE P388; Tableau 9, 50 mg/kg i.p. x j 1,5,9",161%
same,T/C (%),"LEUCEMIE P388; Tableau 9, 50 mg/kg i.p. x j 1-9",176%
same,T/C (%),"LEUCEMIE P388; Tableau 9, 100 mg/kg i.p. x j 1",152%
same,T/C (%),"LEUCEMIE P388; Tableau 9, 100 mg/kg i.p. x j 1,5,9",190%
same,T/C (%),"LEUCEMIE P388; Tableau 9, 100 mg/kg i.p. x j 1-9 (9Q1D)",260%
same,T/C (%),"LEUCEMIE P388; Tableau 9, 150 mg/kg i.p. x j 1,5,9",219%
same,T/C (%),"LEUCEMIE P388; Tableau 9, 150 mg/kg i.p. x j 1-9",195%
same,T/C (%),"LEUCEMIE P388; Tableau 9, 200 mg/kg i.p. x j 1",166%
same,T/C (%),"LEUCEMIE P388; Tableau 9, 250 mg/kg i.p. x j 1,5,9 (Q4D)",285%
same,T/C (%),"LEUCEMIE P388; Tableau 9, 300 mg/kg i.p. x j 1",166%
same,T/C (%),"LEUCEMIE P388; Tableau 9, 400 mg/kg i.p. x j 1",200%
same,Volume moyen de la tumeur (cm^3 ± S.E.),[2]; jour 14,"0,38±0,01 cm^3"
same,nombre de souris avec tumeur/total,[2]; jour 14,4/10
same,Volume moyen de la tumeur (cm^3 ± S.E.),[2]; jour 21,"2,03±0,17 cm^3"
same,nombre de souris avec tumeur/total,[2]; jour 21,9/9
